Data taken from ChEMBL document CHEMBL5055679, “Discovery of a Novel Androgen Receptor Antagonist Manifesting Evidence to Disrupt the Dimerization of the Ligand-Binding Domain via Attenuating the Hydrogen-Bonding Network Between the Two Monomers” (J Med Chem, 2021).
pIC50: −log10 of the molar value. The source made the active and inactive calls. The rule behind the calls is not given here.

Assays:
HeLa = assay: Cytotoxicity against human HeLa cells assessed as reduction in cell viability at 50 uM incubated for 72 hrs by MTT assay; assay type: functional, cell-based
MCF7 [1] = assay: Cytotoxicity against human MCF7 cells assessed as reduction in cell viability at 50 uM incubated for 72 hrs by MTT assay; assay type: functional, cell-based
A549 [2] = assay: Cytotoxicity against human A549 cells assessed as reduction in cell viability at low concentration incubated for 72 hrs by MTT assay; assay type: functional, cell-based
[3] = biological target: T1, Mineralocorticoid receptor (Homo sapiens) (UniProt P08235); assay: Agonist activity at mineralocorticoid receptor in human PC-3 cells by dual-Glo luciferase assay; assay type: cell-based
T1 sequence (whole entry): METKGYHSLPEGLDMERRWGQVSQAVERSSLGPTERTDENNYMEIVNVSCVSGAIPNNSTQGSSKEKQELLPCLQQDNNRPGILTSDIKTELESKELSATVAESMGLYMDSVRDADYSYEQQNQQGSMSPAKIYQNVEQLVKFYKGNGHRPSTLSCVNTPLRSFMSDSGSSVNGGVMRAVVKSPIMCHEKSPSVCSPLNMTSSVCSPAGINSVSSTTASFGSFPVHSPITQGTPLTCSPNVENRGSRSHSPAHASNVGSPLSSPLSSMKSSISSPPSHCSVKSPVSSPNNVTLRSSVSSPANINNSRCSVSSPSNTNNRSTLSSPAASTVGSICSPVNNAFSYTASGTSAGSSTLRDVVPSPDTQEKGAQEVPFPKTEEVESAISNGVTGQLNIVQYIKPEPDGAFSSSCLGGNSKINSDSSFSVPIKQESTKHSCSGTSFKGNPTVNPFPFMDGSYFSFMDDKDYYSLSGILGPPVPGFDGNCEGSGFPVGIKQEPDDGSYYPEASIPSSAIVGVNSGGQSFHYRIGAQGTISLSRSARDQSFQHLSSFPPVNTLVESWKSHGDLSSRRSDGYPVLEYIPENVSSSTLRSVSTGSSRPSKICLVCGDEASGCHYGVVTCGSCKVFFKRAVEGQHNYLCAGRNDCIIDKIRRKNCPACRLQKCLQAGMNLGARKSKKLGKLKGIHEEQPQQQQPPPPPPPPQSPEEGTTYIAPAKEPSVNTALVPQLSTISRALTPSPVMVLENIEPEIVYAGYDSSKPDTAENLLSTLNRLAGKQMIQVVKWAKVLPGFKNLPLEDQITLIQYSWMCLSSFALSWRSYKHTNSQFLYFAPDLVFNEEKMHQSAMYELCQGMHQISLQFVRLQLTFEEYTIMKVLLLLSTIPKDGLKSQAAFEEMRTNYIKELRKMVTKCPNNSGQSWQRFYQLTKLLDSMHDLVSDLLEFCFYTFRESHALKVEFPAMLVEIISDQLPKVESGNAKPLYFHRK

LNCaP [4] = assay: Cytotoxicity against human LNCaP cells assessed as reduction in cell viability incubated for 72 hrs by MTT assay; assay type: functional, cell-based
[5] = biological target: T2, Androgen receptor (Homo sapiens) (UniProt P10275); assay: Antagonist activity at androgen receptor in human LNCaP cells assessed as reduction in DHT-induced PSA mRNA expression after 48 hrs by SYBR green dye based qPCR analysis; assay type: cell-based; details: filed as antagonist, dose 0.1-10 µM
T2 sequence (whole entry): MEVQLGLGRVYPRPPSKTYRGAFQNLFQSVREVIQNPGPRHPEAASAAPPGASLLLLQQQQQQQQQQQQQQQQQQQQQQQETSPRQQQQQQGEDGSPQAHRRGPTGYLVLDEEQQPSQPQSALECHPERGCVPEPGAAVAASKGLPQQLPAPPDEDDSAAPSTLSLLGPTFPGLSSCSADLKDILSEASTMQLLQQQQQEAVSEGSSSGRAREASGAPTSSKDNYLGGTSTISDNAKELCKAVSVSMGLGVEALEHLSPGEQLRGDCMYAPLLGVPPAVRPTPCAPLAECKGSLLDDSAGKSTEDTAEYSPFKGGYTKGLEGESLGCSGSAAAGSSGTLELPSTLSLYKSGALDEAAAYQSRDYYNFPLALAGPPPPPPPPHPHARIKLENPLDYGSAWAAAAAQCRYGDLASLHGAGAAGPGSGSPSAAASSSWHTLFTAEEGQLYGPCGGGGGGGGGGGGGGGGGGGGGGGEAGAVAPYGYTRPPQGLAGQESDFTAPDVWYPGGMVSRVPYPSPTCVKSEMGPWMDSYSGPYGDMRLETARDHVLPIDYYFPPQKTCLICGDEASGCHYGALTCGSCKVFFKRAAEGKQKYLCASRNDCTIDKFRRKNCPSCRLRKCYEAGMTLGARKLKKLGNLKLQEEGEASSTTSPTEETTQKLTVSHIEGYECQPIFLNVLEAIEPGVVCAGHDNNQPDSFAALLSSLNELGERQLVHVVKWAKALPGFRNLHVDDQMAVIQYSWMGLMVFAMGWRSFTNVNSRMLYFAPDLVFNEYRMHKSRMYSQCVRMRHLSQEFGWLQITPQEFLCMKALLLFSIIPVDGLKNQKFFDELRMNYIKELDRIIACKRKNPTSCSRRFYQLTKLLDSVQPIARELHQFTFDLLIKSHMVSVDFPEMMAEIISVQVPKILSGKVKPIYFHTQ

PC-3 = assay: Cytotoxicity against human PC-3 cells assessed as reduction in cell viability incubated for 72 hrs by MTT assay; assay type: functional, cell-based
GES1 = assay: Cytotoxicity against human GES1 cells assessed as reduction in cell viability incubated for 72 hrs by MTT assay; assay type: cell-based; details: ges1, 72 h
[6] = biological target: T2, Androgen receptor (Homo sapiens); assay: Antagonist activity at androgen receptor in human LNCaP cells assessed as reduction in DHT-induced endogenous PSA level at 0.1 to 10 uM after 48 hrs by Western blot analysis; assay type: cell-based; details: filed as antagonist, dose 0.1-10 µM
HepG2 = assay: Cytotoxicity against human HepG2 cells assessed as reduction in cell viability at 50 uM incubated for 72 hrs by MTT assay; assay type: functional, cell-based
LNCaP [7] = assay: Inhibition of colony formation in human LANCaP cells after 2 weeks by crystal violet staining based assay; assay type: functional, cell-based; details: dose 2-20 µM
[8] = biological target: T2, Androgen receptor (Homo sapiens); assay: Antagonist activity at androgen receptor in human LNCaP cells assessed as reduction in DHT-induced secreted PSA level; assay type: cell-based; details: filed as antagonist, dose 0.1-10 µM, time 48.0 hrs
DU-145 = assay: Cytotoxicity against human DU-145 cells assessed as reduction in cell viability incubated for 72 hrs by MTT assay; assay type: functional, cell-based
[9] = biological target: T1, Mineralocorticoid receptor (Homo sapiens); assay: Antagonist activity at mineralocorticoid receptor in human PC-3 cells assessed as reduction in aldosterone-induced luciferase activity at 10 uM by dual-Glo luciferase assay; assay type: cell-based
A549 [10] = assay: Cytotoxicity against human A549 cells assessed as reduction in cell viability at 50 uM incubated for 72 hrs by MTT assay; assay type: functional, cell-based
MCF7 [11] = assay: Cytotoxicity against human MCF7 cells assessed as reduction in cell viability at low concentration incubated for 72 hrs by MTT assay; assay type: functional, cell-based
[12] = Cytotoxicity against human chang cells assessed as reduction in cell viability at 50 uM incubated for 72 hrs by MTT assay; assay type: cell-based; details: chang liver
Androgen receptor = biological target: T3, Androgen receptor (Homo sapiens, UniProt P10275)
T3 sequence (P10275 whole entry): T2 sequence (whole entry)
Description: Binding affinity to GST-tagged AR ligand binding domain (unknown origin) measured after 4 hrs by fluorescence polarization assay

Activity [3]: inactive
Activity [5]: Dose-dependent effect
Activity [6]: Active
Activity [8]: Dose-dependent effect
Activity [9]: inactive
pIC50 (Androgen receptor): 6.12
SMILES: O=c1cc(C(F)(F)F)c2ccc(OCc3ccc(Br)cc3)cc2o1
Activity (HeLa): Active
Activity (MCF7 [1]): Active
Activity (A549 [2]): inactive
Activity (LNCaP [4]): Active
Activity (PC-3): Active
Activity (GES1): Non-Toxic
Activity (HepG2): Active
inhibition (LNCaP [7]): Dose-dependent effect
Activity (DU-145): Active
Activity (A549 [10]): Active
Activity (MCF7 [11]): inactive
Activity [12]: Non-Toxic
